Earlier results, collected in US20220151952A1 (priority 2019, published 2022).

For cannabidiol [CBD], the “solubility in organic solvents” value (organic solvents, such as oil) is listed as “soluble” and the solubility in water (water) is listed as “insoluble”.
